This series is described as follows: Peptide hydrophobicity by RP-HPLC retention time. As to conditions: RP-HPLC retention time at pH 2, 25° C. The class given is physicochemical. As for the experimental part:
Column: Zorbax 300 SB-C8, 150×2.1 mm ID, 5-μm particle size, 300-Å pore size; conditions, linear AB gradient (0.25% acetonitrile/min) at a flow-rate of 0.3 ml/min, where eluent A was 20 mM aq. TFA and eluent B was 20 mM TFA in acetonitrile and the temperature was 25° C. The sequences of the ten peptides (with seven peptides containing Lys specificity determinants at positions 13 and 16 of the non-polar face (see FIG. 1) are shown in Table 1G. Peptide denotions in FIG. 4 have been abbreviated from those shown in Table 1G; for example, D87(Lys1-6 Arg-1) has been shortened to D87(6 Arg-1). For the peptides without specificity determinants, we have added A13/A16 to the peptide denotions. It is interesting that the Dab containing peptides are more hydrophilic than the Dap containing peptides even thought the Dab containing peptides have an additional carbon atom per Dab residue.
Retention behavior in reversed-phase chromatography is an excellent method to represent overall peptide hydrophobicity. […] All ten peptides used in this study could be readily separated by reversed-phase chromatography with the seven peptides with specificity determinants being much more hydrophilic than the three control peptides without specificity determinants (FIG. 4). […]

Turning to `CC(=O)N[C@H](CCCCN)C(=O)N[C@H](CC(C)C)C(=O)N[C@H](CCN)C(=O)N[C@H](CO)C(=O)N[C@H](CC(C)C)C(=O)N[C@H](CC(C)C)C(=O)N[C@H](CCN)C(=O)N[C@@H](C(=O)N[C@H](CC(C)C)C(=O)N[C@H](CO)C(=O)N[C@H](CCN)C(=O)N[C@H](C)C(=O)N[C@H](C)C(=O)N[C@H](C)C(=O)N[C@H](C)C(=O)N[C@H](C)C(=O)N[C@H](CC(C)C)C(=O)N[C@H](CCN)C(=O)N[C@@H](C(=O)N[C@H](CC(C)C)C(=O)N[C@H](CC(C)C)C(=O)N[C@H](CCN)C(=O)N[C@H](C)C(=O)N[C@H](CC(C)C)C(=O)N[C@H](CO)C(=O)N[C@H](CCN)C(N)=O)[C@H](C)O)[C@H](C)O` [D86(K13A/K16A)-(Lys^1-6Dab-1), Ac-KL(Dab)SLL(Dab)TLS(Dab)AAAAAL(Dab)TLL(Dab)ALS(Dab)-amide], the “Hydrophobicity pH 2 tR” value is listed as 158.3 min. As for `CC(=O)N[C@H](CCCCN)C(=O)N[C@H](CC(C)C)C(=O)N[C@H](CN)C(=O)N[C@H](CO)C(=O)N[C@H](CC(C)C)C(=O)N[C@H](CC(C)C)C(=O)N[C@H](CN)C(=O)N[C@@H](C(=O)N[C@H](CC(C)C)C(=O)N[C@H](CO)C(=O)N[C@H](CN)C(=O)N[C@H](C)C(=O)N[C@H](C)C(=O)N[C@H](C)C(=O)N[C@H](C)C(=O)N[C@H](C)C(=O)N[C@H](CC(C)C)C(=O)N[C@H](CN)C(=O)N[C@@H](C(=O)N[C@H](CC(C)C)C(=O)N[C@H](CC(C)C)C(=O)N[C@H](CN)C(=O)N[C@H](C)C(=O)N[C@H](CC(C)C)C(=O)N[C@H](CO)C(=O)N[C@H](CN)C(N)=O)[C@H](C)O)[C@H](C)O` [D105(K13A/K16A)-(Lys^1-6Dap-1), Ac-KL(Dap)SLL(Dap)TLS(Dap)AAAAAL(Dap)TLL(Dap)ALS(Dap)-amide], the figure is 172.3 min.

The values above are taken from US20220105150A1, “AMPHIPATHIC ALPHA-HELICAL ANTIMICROBIAL PEPTIDES TREAT INFECTIONS BY GRAM-NEGATIVE PATHOGENS” (priority 2019, published 2022).
